Patent US20250368627A1, “PYRAZOLESULFONAMIDES AS ANTITUMOR AGENTS” (Peloton Therapeutics, Inc., a fully owned subsidiary of …, priority 2019, published 2025)

Each molecule was assayed against T1, DDB1DB/DCAF15 and RBM39 R1R2 complex (Homo sapiens, UniProt Q14498+Q66K64) (assay: DCAF15 RBM39 Complex Formation Assay (FRET)). Settings: FRET ratio Em 665/Em 615, incubated overnight at 4° C.
T1 construct: Amino acids 150 to 331 of RBM39 were cloned into pGEX4T3; GST (from vector pGEX4T3); TEV cleavage site (N); made in house; host or cells: DDB1DB/His-DCAF15: baculovirus/Sf9 co-expression; RBM39 R1R2: E. coli (pGEX4T3)
T1 sequence (Q66K64 whole entry, the tested form may be a part): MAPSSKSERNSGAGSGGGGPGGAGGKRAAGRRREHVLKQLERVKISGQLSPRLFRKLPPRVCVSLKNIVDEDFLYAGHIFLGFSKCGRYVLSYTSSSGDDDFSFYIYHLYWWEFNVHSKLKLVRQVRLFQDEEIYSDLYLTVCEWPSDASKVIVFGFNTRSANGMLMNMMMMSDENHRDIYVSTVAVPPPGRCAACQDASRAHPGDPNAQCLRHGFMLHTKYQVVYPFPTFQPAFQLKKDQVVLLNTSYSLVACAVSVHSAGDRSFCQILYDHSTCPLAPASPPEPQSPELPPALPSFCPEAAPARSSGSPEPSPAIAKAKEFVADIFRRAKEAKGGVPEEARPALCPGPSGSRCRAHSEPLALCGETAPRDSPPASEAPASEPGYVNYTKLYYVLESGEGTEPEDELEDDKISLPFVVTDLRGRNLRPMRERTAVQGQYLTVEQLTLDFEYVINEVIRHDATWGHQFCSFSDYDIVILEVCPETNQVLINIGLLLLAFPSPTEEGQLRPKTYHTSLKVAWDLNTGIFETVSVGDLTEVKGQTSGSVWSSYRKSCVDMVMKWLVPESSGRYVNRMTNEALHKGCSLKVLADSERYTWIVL
T1 sequence (Q14498 150-331): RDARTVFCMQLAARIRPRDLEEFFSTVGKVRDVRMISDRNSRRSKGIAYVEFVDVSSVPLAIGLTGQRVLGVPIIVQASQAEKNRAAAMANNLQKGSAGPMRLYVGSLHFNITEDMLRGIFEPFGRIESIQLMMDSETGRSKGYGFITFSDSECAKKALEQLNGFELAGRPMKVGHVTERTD
T1 sequence (Q16531 with tags, fused parts or gaps DEL396-708 partner): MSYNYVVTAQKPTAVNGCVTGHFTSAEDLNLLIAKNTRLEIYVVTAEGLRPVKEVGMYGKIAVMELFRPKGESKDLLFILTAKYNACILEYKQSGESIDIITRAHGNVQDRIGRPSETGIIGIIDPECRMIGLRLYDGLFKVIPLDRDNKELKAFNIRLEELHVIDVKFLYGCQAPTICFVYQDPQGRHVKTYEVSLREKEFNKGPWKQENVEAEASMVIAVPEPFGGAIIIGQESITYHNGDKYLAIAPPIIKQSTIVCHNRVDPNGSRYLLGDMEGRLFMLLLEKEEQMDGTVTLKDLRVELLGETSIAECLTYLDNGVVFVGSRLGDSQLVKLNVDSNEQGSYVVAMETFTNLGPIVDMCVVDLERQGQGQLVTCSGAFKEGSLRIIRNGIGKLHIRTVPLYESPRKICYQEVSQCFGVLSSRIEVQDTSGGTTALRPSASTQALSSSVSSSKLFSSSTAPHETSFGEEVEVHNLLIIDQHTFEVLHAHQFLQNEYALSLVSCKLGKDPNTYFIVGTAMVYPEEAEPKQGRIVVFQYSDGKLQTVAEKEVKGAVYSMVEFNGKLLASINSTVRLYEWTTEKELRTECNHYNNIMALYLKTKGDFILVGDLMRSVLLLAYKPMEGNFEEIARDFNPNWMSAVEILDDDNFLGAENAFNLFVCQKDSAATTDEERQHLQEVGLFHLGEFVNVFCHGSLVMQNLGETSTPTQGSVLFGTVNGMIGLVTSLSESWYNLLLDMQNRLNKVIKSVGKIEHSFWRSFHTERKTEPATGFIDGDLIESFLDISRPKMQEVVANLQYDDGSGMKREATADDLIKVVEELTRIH
Type: binding
Description: LANCE Eu-W1024 Anti-6×His and SureLight Allophycocyanin-anti-FLAG antibodies were purchased from Perkin Elmer. Human DDB1DB and His-tagged DCAF15 were co-expressed in baculovirus/sf9 system. While full length DDB1 contains three 7-bladed propellers termed A, B, and C, DDB1DB has only propeller A (amino acids 1 to 395) and C (amino acids 709-1140). The His-tagged DCAF15 contains six histidine residues directly preceding the DCAF15 sequence without any linker. An RBM39 fragment containing RRM1 and RRM2 was expressed in E. coli. Amino acids 150 to 331 of RBM39 were cloned into pGEX4T3 with an N-terminal TEV cleavage site and a C-terminal FLAG tag.
A compound of the present disclosure in DMSO (2 μL) was transferred to a 384-well assay plate. Compound was added in 14 points, 3-fold serial dilution (1 μM to 0.6 pico molar) in DMSO. […] FRET assay buffer (25 mM HEPES, pH 7.5, 100 mM NaCl, […], 0.5 mM TCEP, 0.005% Tween-20, 0.2 nM Eu—W1024 Anti-6×His, 50 nM SureLight Allophycocyanin-anti-FLAG, 20 nM DDB1DB/DCAF15, 50 nM RBM39 R1R2) was added and the resulting solution was incubated overnight at 4° C. The plate was placed in a plate reader (Spark 10) with excitation at 1=340 nm and emissions monitored at 1=665 nm and 1=615 nm, and the FRET ratio (Em 665/Em 615) was determined. Low signal controls containing no compound and high signal controls containing 10 mM indisulam were measured for each plate.
EC50 values were calculated using Dotmatics template equation for 4-parameter fit. Results are expressed as % formation using the following equation: […]
In the case of Cc1nn(C)c(C)c1S(=O)(=O)Nc1cccc2c(Cl)c[nH]c12 [Compound 2, N-(3-chloro-1H-indol-7-yl)-1,3,5-trimethyl-pyrazole-4-sulfonamide], the IC50 is reported as over 1000 nM.
Work on CCn1cc(S(=O)(=O)Nc2cccc3c(Cl)c[nH]c23)cn1 [Compound 4, N-(3-chloro-1H-indol-7-yl)-1-ethyl-pyrazole-4-sulfonamide] yielded an IC50 of under 250 nM.
Cc1nn(C)cc1S(=O)(=O)Nc1cccc2c(Cl)c[nH]c12 [Compound 5, N-(3-chloro-1H-indol-7-yl)-1,3-dimethyl-pyrazole-4-sulfonamide] was tested, and the IC50 was 250 to 1000 nM.
For O=S(=O)(Nc1cccc2c(Cl)c[nH]c12)c1cnn(C2CCOC2)c1 (stereo not shown) [Compound 8, N-(3-chloro-1H-indol-7-yl)-1-tetrahydrofuran-3-yl-pyrazole-4-sulfonamide], the IC50 was under 250 nM.
O=S(=O)(Nc1cccc2c(Cl)c[nH]c12)c1cn[nH]c1 [Compound 10, N-(3-chloro-1H-indol-7-yl)-1H-pyrazole-4-sulfonamide] showed an IC50 of under 250 nM.
Work on O=S(=O)(c1cnn(CC2CC2)c1)N(CC1CC1)c1cccc2c(Cl)c[nH]c12 [Compound 48, N-(3-chloro-1H-indol-7-yl)-N,1-bis(cyclopropylmethyl)pyrazole-4-sulfonamide] yielded an IC50 of over 1000 nM.
COCCN(c1cccc2c(Cl)c[nH]c12)S(=O)(=O)c1cnn(CCOC)c1 [Compound 50, N-(3-chloro-1H-indol-7-yl)-N,1-bis(2-methoxyethyl)pyrazole-4-sulfonamide] gave an IC50 of over 1000 nM.
In the case of Cn1cc(S(=O)(=O)Nc2ccc(F)c3cc[nH]c23)cn1 [Compound 55, N-(4-fluoro-1H-indol-7-yl)-1-methyl-pyrazole-4-sulfonamide], the IC50 is reported as over 1000 nM.
In the case of O=S1(=O)CC(n2cc(S(=O)(=O)Nc3cccc4c(Cl)c[nH]c34)cn2)C1 [Compound 58, N-(3-chloro-1H-indol-7-yl)-1-(1,1-dioxothietan-3-yl)pyrazole-4-sulfonamide], the IC50 is reported as over 1000 nM.
Molecule Cc1ccc(NS(=O)(=O)c2cnn(C)c2C#N)c2[nH]cc(C#N)c12 [Compound 131, 5-cyano-N-(3-cyano-4-methyl-1H-indol-7-yl)-1-methyl-pyrazole-4-sulfonamide] has an IC50 of 250 to 1000 nM.
With Cn1ncc(S(=O)(=O)Nc2ccc(Cl)c3c(C#N)c[nH]c23)c1C#N [Compound 132, N-(4-chloro-3-cyano-1H-indol-7-yl)-5-cyano-1-methyl-pyrazole-4-sulfonamide] the IC50 was 250 to 1000 nM.
In the case of N#Cc1n[nH]c2c(NS(=O)(=O)c3cnn([C@H](CO)CF)c3)ccc(Cl)c12 [Compound 310, N-(4-chloro-3-cyano-1H-indazol-7-yl)-1-[(1R)-1-(fluoromethyl)-2-hydroxy-ethyl]pyrazole-4-sulfonamide], the IC50 is reported as under 250 nM.
Work on Cc1ccc(NS(=O)(=O)c2cnn([C@H](CO)CF)c2)c2[nH]cc(C#N)c12 [Compound 313, N-(3-cyano-4-methyl-1H-indol-7-yl)-1-[(1R)-1-(fluoromethyl)-2-hydroxy-ethyl]pyrazole-4-sulfonamide] yielded an IC50 of under 250 nM.
For Cc1ccc(NS(=O)(=O)c2cnn([C@H](CO)CF)c2)c2[nH]nc(C#N)c12 [Compound 314, N-(3-cyano-4-methyl-1H-indazol-7-yl)-1-[(1R)-1-(fluoromethyl)-2-hydroxy-ethyl]pyrazole-4-sulfonamide], the IC50 was under 250 nM.
Cc1ccc(NS(=O)(=O)c2cnn(C(C)(C)CO)c2N)c2[nH]cc(C#N)c12 [Compound 315, 5-amino-N-(3-cyano-4-methyl-1H-indol-7-yl)-1-(2-hydroxy-1,1-dimethyl-ethyl)pyrazole-4-sulfonamide] showed an IC50 of under 250 nM.
With CC(C)(CO)n1ncc(S(=O)(=O)Nc2ccc(Cl)c3c(C#N)c[nH]c23)c1N [Compound 316, 5-amino-N-(4-chloro-3-cyano-1H-indol-7-yl)-1-(2-hydroxy-1,1-dimethyl-ethyl)pyrazole-4-sulfonamide] the IC50 was under 250 nM.
